Source: PubChem BioAssay AID328 (DTP/NCI, 2004)
“And” between values parts separate entries of the source, which are not always exact repeats. Equal values may be shown once. Toxic doses and inconclusive results are not listed.

System: BDF1 mice, P388 leukemia ip, median survival T/C
Assay: NCI In Vivo Anticancer Drug Screen. Data for tumor model P388 Leukemia (intraperitoneal) in B6D2F1 (BDF1) mice
Conditions: endpoint: median survival time, higher = longer survival
Summary of the method: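 Steps: implant the tumour, treat one group with compound and another with vehicle, record survival, then divide treated by control.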

[1] = dose: 100.0 mg/kg/injection, schedule: Q04DX003 (ip), vehicle: saline
[2] = dose: 200.0 mg/kg/injection, schedule: Q04DX003 (ip), vehicle: saline
[3] = dose: 100.0 mg/kg/injection, schedule: Q01DX009 (ip), vehicle: Klucel (hydroxypropylcellulose) (HPC)
[4] = dose: 200.0 mg/kg/injection, schedule: Q01DX009 (ip), vehicle: Klucel (hydroxypropylcellulose) (HPC)
[5] = dose: 100.0 mg/kg/injection, schedule: Q04DX003 (ip), vehicle: saline with Tween-80
[6] = dose: 200.0 mg/kg/injection, schedule: Q04DX003 (ip), vehicle: saline with Tween-80
[7] = dose: 50.0 mg/kg/injection, schedule: Q01DX009 (ip), vehicle: saline with Tween-80
[8] = dose: 100.0 mg/kg/injection, schedule: Q01DX009 (ip), vehicle: saline with Tween-80
[9] = dose: 200.0 mg/kg/injection, schedule: Q01DX009 (ip), vehicle: saline with Tween-80
[10] = dose: 400.0 mg/kg/injection, schedule: Q01DX009 (ip), vehicle: saline with Tween-80
[11] = dose: 400.0 mg/kg/injection, schedule: Q04DX003 (ip), vehicle: saline with Tween-80
[12] = dose: 50.0 mg/kg/injection, schedule: Q04DX003 (ip), vehicle: saline sonified
[13] = dose: 100.0 mg/kg/injection, schedule: Q04DX003 (ip), vehicle: saline sonified
[14] = dose: 25.0 mg/kg/injection, schedule: Q01DX009 (ip), vehicle: saline with Tween-80

## CN1CC2([N+](=O)[O-])C=CCC([N+](=O)[O-])(C1)C2 (stereo not given)
dose: 25.0 mg/kg/injection, schedule: Q01DX009 (ip), vehicle: water
  T/C: 90 % of control
dose: 50.0 mg/kg/injection, schedule: Q01DX009 (ip), vehicle: water
  T/C: 115 % of control
dose: 100.0 mg/kg/injection, schedule: Q01DX009 (ip), vehicle: water
  T/C: 108 % of control
dose: 200.0 mg/kg/injection, schedule: Q01DX009 (ip), vehicle: water
  T/C: 99 % of control

## CN=C(N)c1ccc(N=C(N)c2ccc(N=C(N)c3ccc(NC(=O)Nc4cccc(NC(=O)Nc5ccc(C(N)=Nc6ccc(C(N)=Nc7ccc(C(N)=NC)cc7)cc6)cc5)c4)cc3)cc2)cc1
dose: 0.8 mg/kg/injection, schedule: Q01DX009 (ip), vehicle: saline with Tween-80
  T/C: 119 % of control
dose: 3.0 mg/kg/injection, schedule: Q01DX009 (ip), vehicle: saline with Tween-80
  T/C: 162 % of control
dose: 4.5 mg/kg/injection, schedule: Q04DX003 (ip), vehicle: saline with Tween-80
  T/C: 150 % of control
dose: 5.0 mg/kg/injection, schedule: Q01DX009 (ip), vehicle: saline with Tween-80
  T/C: 175 % of control and 195 % of control
dose: 7.0 mg/kg/injection, schedule: Q04DX003 (ip), vehicle: saline with Tween-80
  T/C: 150 % of control
dose: 8.0 mg/kg/injection, schedule: Q01DX009 (ip), vehicle: saline with Tween-80
  T/C: 212 % of control
dose: 11.0 mg/kg/injection, schedule: Q04DX003 (ip), vehicle: saline with Tween-80
  T/C: 154 % of control
dose: 12.0 mg/kg/injection, schedule: Q01DX009 (ip), vehicle: saline with Tween-80
  T/C: 168 % of control and 170 % of control
dose: 17.0 mg/kg/injection, schedule: Q04DX003 (ip), vehicle: saline with Tween-80
  T/C: 170 % of control and 179 % of control
dose: 18.0 mg/kg/injection, schedule: Q01DX009 (ip), vehicle: saline with Tween-80
  T/C: 240 % of control and 192 % of control
dose: 25.0 mg/kg/injection, schedule: Q04DX003 (ip), vehicle: saline with Tween-80
  T/C: 200 % of control
dose: 27.0 mg/kg/injection, schedule: Q01DX009 (ip), vehicle: saline with Tween-80
  T/C: 200 % of control
dose: 37.0 mg/kg/injection, schedule: Q01DX009 (ip), vehicle: saline with Tween-80
  T/C: 100 % of control
dose: 37.0 mg/kg/injection, schedule: Q04DX003 (ip), vehicle: saline with Tween-80
  T/C: 166 % of control and 191 % of control
dose: 37.5 mg/kg/injection, schedule: Q04DX003 (ip), vehicle: saline with Tween-80
  T/C: 181 % of control
dose: 55.0 mg/kg/injection, schedule: Q04DX003 (ip), vehicle: saline with Tween-80
  T/C: 158 % of control and 195 % of control

## CCC(C)(O)C#CC(C)(O)CC (stereo not given)
[1]
  T/C: 91 % of control
[2]
  T/C: 91 % of control
dose: 400.0 mg/kg/injection, schedule: Q04DX003 (ip), vehicle: saline
  T/C: 87 % of control

## Cc1nn(C)c2ccc([N+](=O)[O-])cc12
[3]
  T/C: 118 % of control
[4]
  T/C: 104 % of control
dose: 400.0 mg/kg/injection, schedule: Q01DX009 (ip), vehicle: Klucel (hydroxypropylcellulose) (HPC)
  T/C: 122 % of control

## CCC(=O)Oc1c(Cl)c(Cl)c(C#N)c(Cl)c1Cl
[5]
  T/C: 108 % of control
[6]
  T/C: 116 % of control

## CC(c1ccccc1)c1ccc(O)cc1 (stereo not given)
[7]
  T/C: 110 % of control
[8]
  T/C: 110 % of control
[1]
  T/C: 100 % of control
[9]
  T/C: 110 % of control
[2]
  T/C: 91 % of control

## N=C(Oc1ccccc1)c1ccccc1
[7]
  T/C: 100 % of control
[8]
  T/C: 102 % of control
[9]
  T/C: 102 % of control

## CC[N+](CC)(CC)CCCNC1=CC(=O)C(NCCC[N+](CC)(CC)CC)=CC1=O
dose: 0.39 mg/kg/injection, schedule: Q04DX003 (ip), vehicle: saline
  T/C: 99 % of control
dose: 0.78 mg/kg/injection, schedule: Q04DX003 (ip), vehicle: saline
  T/C: 99 % of control

## COC(=O)C(CSCSC)NC(=O)/C=C/c1ccccc1C (stereo not given)
[7]
  T/C: 101 % of control
[8]
  T/C: 98 % of control
[5]
  T/C: 104 % of control
[9]
  T/C: 101 % of control
[6]
  T/C: 91 % of control
[10]
  T/C: 114 % of control
[11]
  T/C: 104 % of control

## C(=N/Nc1ccccn1)/c1cccnc1
dose: 25.0 mg/kg/injection, schedule: Q01DX001 (ip), vehicle: saline with Tween-80
  T/C: 100 % of control
dose: 50.0 mg/kg/injection, schedule: Q01DX001 (ip), vehicle: saline with Tween-80
  T/C: 98 % of control
dose: 100.0 mg/kg/injection, schedule: Q01DX001 (ip), vehicle: saline with Tween-80
  T/C: 100 % of control

## OCCNCCNCC[OH2+].OCCNCCNCC[OH2+].[Ni+2].[O-][Cl+3]([O-])([O-])[O-]
dose: 50.0 mg/kg/injection, schedule: Q01DX009 (ip), vehicle: saline
  T/C: 92 % of control

## CCOC(=O)c1cnc2c(cnn2CC)c1NN=C(C)C
dose: 50.0 mg/kg/injection, schedule: Q04DX003 (ip), vehicle: saline
  T/C: 122 % of control
[2]
  T/C: 111 % of control

## O=C(Nc1ccccc1F)Nc1cc(Cl)ccc1Cl
[12]
  T/C: 90 % of control
[13]
  T/C: 86 % of control
dose: 200.0 mg/kg/injection, schedule: Q04DX003 (ip), vehicle: saline sonified
  T/C: 90 % of control

## CC(C)(C)P(c1ccccc1)c1ccccc1
dose: 50.0 mg/kg/injection, schedule: Q04DX003 (ip), vehicle: saline with Tween-80
  T/C: 111 % of control
[5]
  T/C: 107 % of control
[6]
  T/C: 96 % of control

## S=C(NC1CCCCC1)NC1CCCCC1
dose: 50.0 mg/kg/injection, schedule: Q01DX009 (ip), vehicle: Klucel (hydroxypropylcellulose) (HPC)
  T/C: 113 % of control
dose: 100.0 mg/kg/injection, schedule: Q01DX001 (ip), vehicle: Klucel (hydroxypropylcellulose) (HPC)
  T/C: 109 % of control
[3]
  T/C: 86 % of control
dose: 200.0 mg/kg/injection, schedule: Q01DX001 (ip), vehicle: Klucel (hydroxypropylcellulose) (HPC)
  T/C: 113 % of control
[4]
  T/C: 100 % of control
dose: 400.0 mg/kg/injection, schedule: Q01DX001 (ip), vehicle: Klucel (hydroxypropylcellulose) (HPC)
  T/C: 100 % of control

## C(COCCOCC1CO1)OCCOCC1CO1 (stereo not given)
dose: 50.0 mg/kg/injection, schedule: Q01DX010 (ip), vehicle: saline
  T/C: 109 % of control
dose: 200.0 mg/kg/injection, schedule: Q01DX010 (ip), vehicle: saline
  T/C: 150 % of control
dose: 400.0 mg/kg/injection, schedule: Q01DX010 (ip), vehicle: saline
  T/C: 154 % of control and 172 % of control

## Cc1c(Cl)cccc1NC(=O)Nc1cccc2ccccc12
[5]
  T/C: 91 % of control
[6]
  T/C: 100 % of control
[11]
  T/C: 108 % of control

## OC(CNc1ccc(Cl)c(Cl)c1)COc1ccc(Cl)cc1Cl (stereo not given)
[7]
  T/C: 101 % of control
[8]
  T/C: 101 % of control
[9]
  T/C: 104 % of control

## Clc1cccc(NC2=NCCN=C(Nc3cccc(Cl)c3Cl)SS2)c1Cl
[7]
  T/C: 102 % of control
[8]
  T/C: 100 % of control
[9]
  T/C: 96 % of control

## COC(=O)CCc1ccc(NP(=O)(N2CC2)N2CC2)cc1
dose: 66.0 mg/kg/injection, schedule: Q01DX009 (ip), vehicle: saline with Tween-80
  T/C: 177 % of control
dose: 300.0 mg/kg/injection, schedule: Q04DX003 (ip), vehicle: saline with Tween-80
  T/C: 154 % of control

## NNC(=O)Cc1ccccc1
dose: 25.0 mg/kg/injection, schedule: Q04DX003 (ip), vehicle: saline sonified
  T/C: 110 % of control
[12]
  T/C: 105 % of control
[13]
  T/C: 110 % of control

## COc1cccc(OC)c1-c1oc2ccccc2c(=O)c1O
[8]
  T/C: 107 % of control
[5]
  T/C: 104 % of control
[9]
  T/C: 100 % of control
[6]
  T/C: 109 % of control
[10]
  T/C: 100 % of control
[11]
  T/C: 100 % of control

## CCCCCCCCC[N+]12CC[N+](CCCCCCCCC)(CC1)CC2
dose: 3.13 mg/kg/injection, schedule: Q01DX009 (ip), vehicle: saline
  T/C: 101 % of control
dose: 6.25 mg/kg/injection, schedule: Q01DX009 (ip), vehicle: saline
  T/C: 97 % of control
dose: 12.5 mg/kg/injection, schedule: Q01DX009 (ip), vehicle: saline
  T/C: 98 % of control

## Cc1ccc(-c2cc(C)n(C)[n+]2C)cc1
dose: 12.5 mg/kg/injection, schedule: Q01DX009 (ip), vehicle: saline with Tween-80
  T/C: 108 % of control
[14]
  T/C: 110 % of control

## Cc1cc(C)c2nccc(/C=C/c3ccc(N(C)C)cc3)c2c1
[7]
  T/C: 93 % of control
[8]
  T/C: 103 % of control

## O=[N+]([O-])c1ccc2nc3c(nc2c1)-c1cccc2cccc-3c12
[5]
  T/C: 91 % of control
[6]
  T/C: 100 % of control
[11]
  T/C: 91 % of control

## CC(=O)OCC1OC(OC2=C(CC=C(Cl)Cl)C(=O)c3ccccc3C2=O)C(OC(C)=O)C(OC(C)=O)C1OC(C)=O (stereo not given)
[14]
  T/C: 100 % of control
[7]
  T/C: 100 % of control and 104 % of control
[8]
  T/C: 100 % of control and 102 % of control
[9]
  T/C: 117 % of control
